According to patent publication US20240336617A1, “Substituted Bimane Compounds and Methods of Use Thereof” (THE TRUSTEES OF THE UNIVERSITY OF PENNSYLVANIA, priority 2023, published 2024):

Key:
[1] = Fluorescence (emission) measurements; assay type: physicochemical; settings: for Emission λem: Table S12; for maximum emission wavelength (λem): 50:50 ACN/PBS, excitation at λabs;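 as to all read-outs here: fluorescence emission spectra recorded on a spectrofluorometer, with each compound excited at its own absorption maximum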
Procedure: The fluorescence spectrum of each derivative (150 μL) was measured on a Photon Technology International (PTI) QuantaMaster™ 40 fluorescence spectrometer by excitation at the maximum absorption wavelength for each compound.
The fluorescence spectrum of each derivative (150 μL) was measured on a Photon Technology International (PTJ) QuantaMaster™ 40 fluorescence spectrometer by excitation at the maximum absorption wavelength for each compound.

[2] = Molar absorptivity determination; assay type: physicochemical;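 also: molar absorptivity derived from UV-Vis absorbance spectra recorded for each derivative on a spectrometer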
Procedure: The absorbance spectrum of each derivative (150 μL) was measured on a Thermo Scientific Genesys 150 UV-Vis spectrometer, using 50:50 ACN/PBS as a blank.
Molar absorptivity determination. […] The absorbance spectrum of each derivative (150 μL) was measured on a Thermo Scientific Genesys 150 UV-Vis spectrometer, using 50:50 ACN/PBS as a blank.

[3] = Fluorescent quantum yield (QY) measurements; assay type: physicochemical; settings: for Fluorescence QY: ACN/PBS buffer (1:1 v/v); for Fluorescence quantum yield: in ACN
Procedure: For each QY measurement, the incident excitation light spectrum was collected with 1 mL of solvent. […] Using the JASCO Quantum Yield Software, the dye QY was calculated by dividing the dye fluorescence intensity by the difference in incident light intensity in the presence and absence of dye. The minimum excitation wavelength for a full excitation incident spectrum using this setup is 360 nm.
Fluorescent quantum yield (QY) measurements. For each QY measurement, the incident excitation light spectrum was collected with 1 mL of solvent. After measuring the incident light intensity, dye (3 and 5a-5k) was added to the solvent from a concentrated stock solution to a final concentration of […] and the new spectrum (fluorescence intensity and new incident light intensity) was collected. Using the JASCO Quantum Yield Software, the dye QY was calculated by dividing the dye fluorescence intensity by the difference in incident light intensity in the presence and absence of dye. The minimum excitation wavelength for a full excitation incident spectrum using this setup is 360 nm.

[4] = Solvatochromic measurements; assay type: physicochemical; settings: organic solvents of different polarity
Procedure: The remaining 850 μL solution was used to obtain fluorescence images under a handheld 365 nm UV lamp.
Solvatochromic measurements. […] The remaining 850 μL solution was used to obtain fluorescence images under a handheld 365 nm UV lamp.

[5] = Absorbance measurements (UV-Vis); settings: for λabs: ACN/PBS; for Absorbance Wavelength: ACN:PBS buffer (50:50 v/v)
Procedure: Samples were individually diluted to the final concentration of 25 μM (500 μL) using 50:50 acetonitrile in phosphate buffered saline (ACN/PBS). The absorbance spectrum of each derivative (150 μL) was measured on a Thermo Scientific Genesys 150 UV-Vis spectrometer, using 50:50 ACN/PBS as a blank.

[6] = Fluorescence lifetime measurements (TCSPC); assay type: physicochemical; settings: for Fluorescence Lifetime: ACN/PBS buffer (1:1 v/v); for Lifetime: ACN/PBS buffer (50:50 v/v), excitation 340 nm
Procedure: Time correlated single photon counting (TCSPC) measurements of fluorescence lifetime decays for 100 μM solutions of dyes (6, 7c, 7e, 7f, and 7g) in ACN/PBS buffer (50:50 v/v) were collected with the PTI Quantamaster™ 40 using a pulsed LED with a maximum emission at 340 nm. Fluorescence emission was collected at the indicated wavelength for each dye with 20 nm slit widths. The instrument response function (IRF) was collected under identical conditions. Data analysis was performed with FluoFit software (PicoQuant GmbH; Berlin, Germany) using an exponential decay model.
Fluorescence lifetime measurements. Time correlated single photon counting (TCSPC) measurements of fluorescence lifetime decays for 100 μM solutions of dyes (3 and 5c-f) in ACN/PBS buffer (50:50 v/v) were collected with the PTI Quantamaster™ 40 using a pulsed LED with a maximum emission at 340 nm. Fluorescence emission was collected at the indicated wavelength for each dye with 20 nm slit widths. The instrument response function ([…]) was collected under identical conditions. Data analysis was performed with FluoFit software (PicoQuant GmbH; Berlin, Germany) using an exponential decay model. […] FIG. 64D Fluorescence spectra of 5i-5k. […] Fluorescence spectra were measured at their maximum absorption wavelength. FIGS. 66A-66K show representative QY acquisitions of 3 and 5a-f, 5h-k in ACN/PBS buffer (50:50). All had consistent excitation (360 nm) and spectral collection (350-800 nm) parameters. Final concentration of the probe is 500 μM. Black line indicates incident light and blue line indicates sample spectrum. […] All had consistent excitation (360 nm, slit width 10 nm) and spectral collection (350-800 nm) parameters. Final concentration of the probe is 500 µM. Black line indicates incident light and blue line indicates sample spectrum. FIG. 68: Effect of pH on absorption and emission of 5h and 5j. […] For pH screening of 5h and 5j, PBS buffer solutions were prepared, then adjusted the pH 2, 4, and 7 by adding 6 M hydrochloric acid, pH 9 and 11 by adding 5 M sodium hydroxide. Emission spectra were measured by the excitation wavelength 354 nm for 5h and 385 nm for 5j. […] Lifetime measurements with exponential fits shown at left and residuals after fitting shown at right.

αS fibrils [7] = molecular target: T1, αS fibrils (Homo sapiens, UniProt P37840); assay: Fluorescence spectra with αS fibrils; assay type: binding
T1 construct: intein-His6 (C, cleaved yes); made in house; host or cells: Escherichia coli BL21
Procedure: Fluorescence measurements were performed using a PTI QuantaMaster™ 40 fluorescence spectrometer. Fluorescence spectra of 10 μM probes (concentrated stock solution prepared as 10 mM in DMSO) (7b, 7c, 7d, 7e, 7f, 7g and 7h) in PBS buffer were measured by excitation at their absorbance maximum wavelength in the absence and presence of 50 μM αS fibrils (stock solution 100 μM αS fibrils in PBS buffer).
Fluorescence spectra with αS fibrils. Fluorescence measurements were performed using a PTI QuantaMaster 40 fluorescence spectrometer. Fluorescence spectra of 10 μM probes (concentrated stock solution prepared as 10 mM in DMSO) (5b-5f and 5h) in PBS buffer were measured by excitation at their absorbance maximum wavelength in the absence and presence of 50 μM αS fibrils (stock solution 100 μM αS fibrils in PBS buffer). […] FIGS. 77A-77F show fluorescence spectra of probes (5b-5f and 5h) with and without αS fibrils. Final concentrations of probes and αS fibrils were 10 μM and 50 μM, respectively. Emission spectra collected at each dye's maximum absorption wavelength. Ex/Em slit widths: 3 nm/3 nm. […] Absorbance is shown in FIG. 78A and FIG. 78B, whereas FIG. 78C and FIG. 78D show excitation spectra of probes 5j and 5k with and without αS fibrils. Final probe and fibrils concentrations were 10 μM and 50 μM, respectively. […] Emission wavelengths were 575 nm for 5j, 580 nm for 5k. Ex/Em slit widths: 3 nm/3 nm. […] Black line indicates incident light (αS fibrils without probe) and blue line indicates sample (αS fibrils with probe). Excitation at λexc=435 nm for 5j and λexc=463 nm for 5k and spectral collection (400-800 nm). Final concentrations of the probe and αS fibrils are the 100 μM. Ex/Em slit widths: 5 nm/5 nm.

αS fibrils [8] = molecular target: T1, αS fibrils; assay: Competition binding with ThT on αS fibrils
[9] = pH measurements (absorption and emission); assay type: physicochemical; settings: pH 2-11
Procedure: 10 mM stock solutions of 7h, 7j, and 7k in DMSO were individually diluted into ACN/PBS buffer (50:50 v/v) having different pH ranging from pH 2-11 with 25 μM (500 μL) of final concentration. For pH screening of 7h and 7j, PBS buffer solutions were prepared, then adjusted the pH 2, 4, and 7 by adding 6 M hydrochloric acid, pH 9 and 11 by adding 5 M sodium hydroxide. For pH screening of 7k, pH 4.4 and 7.4 were prepared by citric acid/phosphate buffer. Then, the absorption and fluorescence spectra were recorded by using Thermo Scientific Genesys 150 UV-Vis spectrometer, followed by PTI QuantaMaster™ 40 fluorescence spectrometer by excitation with maximum absorption wavelength.
pH measurements. 10 mM stock solutions of 5h and 5j in DMSO were individually diluted into ACN/PBS buffer (50:50 v/v) having different pH ranging from pH 2-11 with 25 µM (500 μL) of final concentration. For pH screening of 5h and 5j, PBS buffer solutions were prepared, then adjusted the pH 2, 4, and 7 by adding 6 M hydrochloric acid, pH 9 and 11 by adding 5 M sodium hydroxide. Then, we have recorded the absorption and fluorescence spectra by using Thermo Scientific Genesys 150 UV-Vis spectrometer, followed by PTI QuantaMaster™ 40 fluorescence spectrometer by excitation with maximum absorption wavelength.

[10] = 25 μM in ACN/PBS buffer (1:1 v/v), pH 7.4
[11] = ACN/PBS buffer (1:1 v/v), pH 7.4
[12] = in ACN, at maximum absorption wavelength

| Compound | Emission λmax [1, 10] | Stokes shift ([1]; ACN/PBS buffer (1:1 v/v)) | Stokes shift ([1]; in ACN) | Molar Absorptivity (ε) [2, 11] | Molar Absorptivity (ε) [2, 12] | Fluorescence QY [3] | Fluorescence quantum yield [3] | Fluorescence quantum yield ([3]; Table S12) | solvatochromism / environmental sensitivity [4] | Absorbance λmax ([5]; 25 μM in ACN) | Absorbance λmax [5, 10] | λabs [5] | Absorbance Wavelength ([5]; Table 11) | Absorbance Wavelength ([5]; Table S14) | Emission λmax ([1]; 25 μM in ACN) | Emission λem ([1]; 25 μM in ACN) | Fluorescence Lifetime [6] | Lifetime ([6]; Table 4) | Lifetime ([6]; Table S13) | maximum emission wavelength (λem) [1] | other results |
| --- | --- | --- | --- | --- | --- | --- | --- | --- | --- | --- | --- | --- | --- | --- | --- | --- | --- | --- | --- | --- | --- |
| Cc1c(C)n2c(/C=C/c3ccc(C#N)cc3)c(C)c(=O)n2c1=O [Compound 7b, (E)-4-(2-(2,5,6-trimethyl-1,7-dioxo-1H,7H-pyrazolo[1,2-a]pyrazol-3-yl)vinyl)benzonitrile] | 520 nm | 200 nm | 206 nm | 38995 M⁻¹ cm⁻¹ | 43238 M⁻¹ cm⁻¹ | 0.8% | 1.4% | 1.4% | no significant solvatochromism | 316 nm | 320 nm | 320 nm | 320 nm | 320 nm | 522 nm | 522 nm |  |  |  |  |  |
| COP(=O)(Cc1c(C)c(=O)n2c(=O)c(C)c(C)n12)OC [Compound 6, dimethyl ((2,5,6-trimethyl-1,7-dioxo-1H,7H-pyrazolo[1,2-a]pyrazol-3-yl)methyl)phosphonate] | 464 nm | 80 nm | 57 nm | 7902 M⁻¹ cm⁻¹ | 6121 M⁻¹ cm⁻¹ | 64.6% | 77.7% | 77.7% | no significant environmental sensitivity | 375 nm | 384 nm |  |  |  | 432 nm | 432 nm | 2.32 ns | 2.32 ± 0.01 ns | 2.32 ± 0.01 ns | 464 nm | fluorescence quantum yield (QY) ([3]; in ACN/PBS): 64.6%; fluorescent lifetime ([6]; ACN/PBS): 2.32 ns |
| (E)-3-(4-(dimethylamino)styryl)-2,5,6-trimethyl-1H,7H-pyrazolo[1,2-a]pyrazole-1,7-dione [Compound 7l] |  |  |  |  |  |  |  |  |  |  |  |  | 385 nm |  |  |  |  |  |  |  | concentration-dependent shift in the emission maximum with αS fibrils (αS fibrils [7]): binding at limited sites with high affinity; competition with ThT on αS PFFs (αS fibrils [8]): displacement of the known amyloid-binding dye ThT |

Further lines, with some results ahead:

| Emission λmax [1, 10] | Stokes shift ([1]; ACN/PBS buffer (1:1 v/v)) | Stokes shift ([1]; in ACN) | Molar Absorptivity (ε) [2, 11] | Molar Absorptivity (ε) [2, 12] | Fluorescence QY [3] | Fluorescence quantum yield [3] | Fluorescence quantum yield ([3]; Table S12) | solvatochromism / environmental sensitivity [4] | Absorbance λmax ([5]; 25 μM in ACN) | Absorbance λmax [5, 10] | λabs [5] | Absorbance Wavelength ([5]; Table 11) | Absorbance Wavelength ([5]; Table S14) | Compound | Emission λmax ([1]; 25 μM in ACN) | Emission λem ([1]; 25 μM in ACN) | Fluorescence Lifetime [6] | Lifetime ([6]; Table 4) | Lifetime ([6]; Table S13) | maximum emission wavelength (λem) [1] | other results |
| --- | --- | --- | --- | --- | --- | --- | --- | --- | --- | --- | --- | --- | --- | --- | --- | --- | --- | --- | --- | --- | --- |
| 503 nm | 182 nm | 176 nm | 23959 M⁻¹ cm⁻¹ | 32724 M⁻¹ cm⁻¹ | 2.5% | 3.1% | 3.1% | no significant solvatochromism | 316 nm | 321 nm | 321 nm | 321 nm | 321 nm | Cc1c(C)n2c(/C=C/c3ccccc3)c(C)c(=O)n2c1=O [Compound 7e, (E)-2,3,6-trimethyl-5-styryl-1H,7H-pyrazolo[1,2-a]pyrazole-1,7-dione] |  |  | 1.02 ns | 1.02 ± 0.004 ns | 1.02 ± 0.004 ns |  |  |
| 506 nm | 152 nm | 144 nm | 31514 M⁻¹ cm⁻¹ | 29910 M⁻¹ cm⁻¹ | 2.3% | 3.1% | 3.1% |  | 342 nm | 354 nm |  | 348 nm | 354 nm | Cc1c(C)n2c(/C=C/c3ccc(O)cc3)c(C)c(=O)n2c1=O [Compound 7h, (E)-3-(4-hydroxystyryl)-2,5,6-trimethyl-1H,7H-pyrazolo[1,2-a]pyrazole-1,7-dione] |  |  |  |  |  | 505 nm | pH effects on absorption and emission [9]: red-shifted absorption at pH 11 with a reduced QY, but no shift in emission |
